Laboratory results as given in PubChem BioAssay AID1963840 (Molecular Pharmacology Branch, DTP, NCI, 2024).

System: 695427-040-R-J1-PDC complex spheroid viability
Test: Anticancer human tumor 695427-040-R-J1-PDC patient-derived colon adenocarcinoma cell line growth inhibition [POLQ]
Details: for IC50: curve of first compound; for viability, T/C: stronger effect = lower value
Summary of the method: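 Three-cell-type spheroids modelling solid tumor plus stroma served as the readout system; POL inhibitors were tested individually and in combination, concentration ranges set by clinical Cmax where known.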

[1] = second compound 0.0316 µM, first compound 0.0316 µM
[2] = second compound 0.0316 µM, first compound 0.1 µM
[3] = second compound 0.1 µM, first compound 0.0316 µM
[4] = second compound 0.1 µM, first compound 0.1 µM
[5] = second compound 0.316 µM, first compound 0.0316 µM
[6] = second compound 0.316 µM, first compound 0.1 µM
[7] = second compound 1 µM, first compound 0.0316 µM
[8] = second compound 1 µM, first compound 0.1 µM
[9] = second compound 3.16 µM, first compound 0.0316 µM
[10] = second compound 3.16 µM, first compound 0.1 µM
[11] = second compound 10 µM, first compound 0.0316 µM
[12] = second compound 10 µM, first compound 0.1 µM
[13] = second compound 0.0316 µM, first compound 0.316 µM
[14] = second compound 0.0316 µM, first compound 1 µM
[15] = second compound 0.0316 µM, first compound 3.16 µM
[16] = second compound 0.0316 µM, first compound 10 µM
[17] = second compound 0.1 µM, first compound 0.316 µM
[18] = second compound 0.1 µM, first compound 1 µM
[19] = second compound 0.1 µM, first compound 3.16 µM
[20] = second compound 0.1 µM, first compound 10 µM
[21] = second compound 0.316 µM, first compound 0.316 µM
[22] = second compound 0.316 µM, first compound 1 µM
[23] = second compound 0.316 µM, first compound 3.16 µM
[24] = second compound 0.316 µM, first compound 10 µM
[25] = second compound 1 µM, first compound 0.316 µM
[26] = second compound 1 µM, first compound 1 µM
[27] = second compound 1 µM, first compound 3.16 µM
[28] = second compound 1 µM, first compound 10 µM
[29] = second compound 3.16 µM, first compound 0.316 µM
[30] = second compound 3.16 µM, first compound 1 µM
[31] = second compound 3.16 µM, first compound 3.16 µM
[32] = second compound 3.16 µM, first compound 10 µM
[33] = second compound 10 µM, first compound 0.316 µM
[34] = second compound 10 µM, first compound 1 µM
[35] = second compound 10 µM, first compound 3.16 µM
[36] = second compound 10 µM, first compound 10 µM
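Note: spheroids exposed to compounds for seven days.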
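Throughout, for viability, T/C: 100% = DMSO vehicle control viability.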

Cn1ncnc1[C@H]1c2n[nH]c(=O)c3cc(F)cc(c23)N[C@@H]1c1ccc(F)cc1 + Nc1ccc(C#CCN(C(=O)Cc2ncc(C(F)(F)F)cc2C(F)(F)F)c2ccc(F)cc2)nn1
IC50 (second compound 0.0316 µM): > 0.1 µM
IC50 (second compound 0.1 µM): > 0.1 µM
IC50 (second compound 0.316 µM): > 0.1 µM
IC50 (second compound 1 µM): > 0.1 µM
IC50 (second compound 3.16 µM): > 0.1 µM
IC50 (second compound 10 µM): > 0.1 µM
viability, T/C (second compound 0.0316 µM, first compound 0.000316 µM): 109%
viability, T/C (second compound 0.0316 µM, first compound 0.001 µM): 103%
viability, T/C (second compound 0.0316 µM, first compound 0.00316 µM): 109%
viability, T/C (second compound 0.0316 µM, first compound 0.01 µM): 103%
viability, T/C [1]: 111%
viability, T/C [2]: 95.1%
viability, T/C (second compound 0.1 µM, first compound 0.000316 µM): 100%
viability, T/C (second compound 0.1 µM, first compound 0.001 µM): 122%
viability, T/C (second compound 0.1 µM, first compound 0.00316 µM): 109%
viability, T/C (second compound 0.1 µM, first compound 0.01 µM): 104%
viability, T/C [3]: 108%
viability, T/C [4]: 88.4%
viability, T/C (second compound 0.316 µM, first compound 0.000316 µM): 110%
viability, T/C (second compound 0.316 µM, first compound 0.001 µM): 109%
viability, T/C (second compound 0.316 µM, first compound 0.00316 µM): 88.5%
viability, T/C (second compound 0.316 µM, first compound 0.01 µM): 102%
viability, T/C [5]: 110%
viability, T/C [6]: 105%
viability, T/C (second compound 1 µM, first compound 0.000316 µM): 107%
viability, T/C (second compound 1 µM, first compound 0.001 µM): 102%
viability, T/C (second compound 1 µM, first compound 0.00316 µM): 104%
viability, T/C (second compound 1 µM, first compound 0.01 µM): 99.7%
viability, T/C [7]: 119%
viability, T/C [8]: 92.8%
viability, T/C (second compound 3.16 µM, first compound 0.000316 µM): 105%
viability, T/C (second compound 3.16 µM, first compound 0.001 µM): 100%
viability, T/C (second compound 3.16 µM, first compound 0.00316 µM): 104%
viability, T/C (second compound 3.16 µM, first compound 0.01 µM): 103%
viability, T/C [9]: 108%
viability, T/C [10]: 89%
viability, T/C (second compound 10 µM, first compound 0.000316 µM): 102%
viability, T/C (second compound 10 µM, first compound 0.001 µM): 90.9%
viability, T/C (second compound 10 µM, first compound 0.00316 µM): 99%
viability, T/C (second compound 10 µM, first compound 0.01 µM): 88.1%
viability, T/C [11]: 102%
viability, T/C [12]: 86.1%

CC(C)n1c(=O)n(C)c2cnc3cc(F)c(-c4ccc(OCCCN5CCCCC5)nc4)cc3c21 + COC1C(OC(N)=O)C(O)C(Oc2ccc3c(O)c(NC(=O)c4ccc(O)c(CC=C(C)C)c4)c(=O)oc3c2C)OC1(C)C
IC50 (second compound 0.0316 µM): > 10 µM
IC50 (second compound 0.1 µM): > 10 µM
IC50 (second compound 0.316 µM): > 10 µM
IC50 (second compound 1 µM): > 10 µM
IC50 (second compound 3.16 µM): > 10 µM
IC50 (second compound 10 µM): > 10 µM
viability, T/C [1]: 99.3%
viability, T/C [2]: 98.7%
viability, T/C [13]: 109%
viability, T/C [14]: 113%
viability, T/C [15]: 110%
viability, T/C [16]: 82.6%
viability, T/C [3]: 114%
viability, T/C [4]: 101%
viability, T/C [17]: 112%
viability, T/C [18]: 118%
viability, T/C [19]: 101%
viability, T/C [20]: 80.1%
viability, T/C [5]: 111%
viability, T/C [6]: 103%
viability, T/C [21]: 110%
viability, T/C [22]: 101%
viability, T/C [23]: 114%
viability, T/C [24]: 74.4%
viability, T/C [7]: 110%
viability, T/C [8]: 104%
viability, T/C [25]: 108%
viability, T/C [26]: 112%
viability, T/C [27]: 105%
viability, T/C [28]: 77.2%
viability, T/C [9]: 106%
viability, T/C [10]: 102%
viability, T/C [29]: 103%
viability, T/C [30]: 109%
viability, T/C [31]: 102%
viability, T/C [32]: 79%
viability, T/C [11]: 106%
viability, T/C [12]: 99.5%
viability, T/C [33]: 110%
viability, T/C [34]: 113%
viability, T/C [35]: 114%
viability, T/C [36]: 77.6%

CC1COCCN1c1cc(C2(O)CC3CCC(C2)O3)c2cnn(-c3ccn[nH]3)c2n1 (stereo unspecified) + Nc1ccc(C#CCN(C(=O)Cc2ncc(C(F)(F)F)cc2C(F)(F)F)c2ccc(F)cc2)nn1
IC50 (second compound 0.0316 µM): > 10 µM
IC50 (second compound 0.1 µM): > 10 µM
IC50 (second compound 0.316 µM): > 10 µM
IC50 (second compound 1 µM): > 10 µM
IC50 (second compound 3.16 µM): > 10 µM
IC50 (second compound 10 µM): > 10 µM
viability, T/C [1]: 103%
viability, T/C [2]: 92.9%
viability, T/C [13]: 83%
viability, T/C [14]: 78.6%
viability, T/C [15]: 65.9%
viability, T/C [16]: 60.5%
viability, T/C [3]: 111%
viability, T/C [4]: 96.5%
viability, T/C [17]: 88%
viability, T/C [18]: 76.3%
viability, T/C [19]: 69%
viability, T/C [20]: 56.3%
viability, T/C [5]: 99.4%
viability, T/C [6]: 96.7%
viability, T/C [21]: 76.7%
viability, T/C [22]: 72.4%
viability, T/C [23]: 70.3%
viability, T/C [24]: 54.5%
viability, T/C [7]: 106%
viability, T/C [8]: 95.3%
viability, T/C [25]: 84%
viability, T/C [26]: 70.5%
viability, T/C [27]: 66.4%
viability, T/C [28]: 49.5%
viability, T/C [9]: 104%
viability, T/C [10]: 87%
viability, T/C [29]: 86.4%
viability, T/C [30]: 66.6%
viability, T/C [31]: 62.4%
viability, T/C [32]: 58.6%
viability, T/C [11]: 106%
viability, T/C [12]: 91.2%
viability, T/C [33]: 78.3%
viability, T/C [34]: 65.1%
viability, T/C [35]: 58.9%
viability, T/C [36]: 56.9%
